Test results taken from patent US20250051344A1, “BIFUNCTIONAL SELECTIVE DEGRADERS OF SMARCA2 AND THERAPEUTIC USES THEREOF” (Nurix Therapeutics, Inc., priority 2023, published 2025).

Columns and labels:
SMARCA2 = molecular target: T1, SMARCA2 (Homo sapiens, UniProt P51531); test: SMARCA2 Cellular Degradation Assay (Western blot analysis on Jess platform); format: cell-based; conditions: for DC50 / Dmax: cellular degradation; for Fold Selectivity SMARCA4/2: ratio DC50 SMARCA4 / DC50 SMARCA2
T1 construct: endogenous in cells
Method: SMARCA2 Cellular Degradation Assay
Western Blot Analysis for SMARCA2 Degradation
Frozen cell pellets were thawed on ice and resuspended in RIPA lysis buffer (Millipore, Cat. No. 20-188) supplemented with 0.2% SDS (Fisher Scientific, Cat. No. 24730020), 200 mM β-glycerophosphate (Alfa Aesar, Cat. No. J62121), 500 mM NaF (Rigaku, Cat. No. 1008046), protease inhibitor (1 tablet per 10 mL, Sigma, Cat. No. 11836170001), 250 U/μL benzonase (Millipore, Cat. No. 71206), 200 mM sodium orthovanadate (FivePhoton, Cat. No. ActVO-4), and 100 mM PMSF (Sigma, Cat. No. 10837091001). 50 μL lysis buffer was used to lyse each pellet containing 5×10E5-1×10E6 live cells extracted from tumors. Lysates were centrifuged for 10 mins at 20,817×g and lysate supernatants were saved for further analysis. Protein levels were determined by the BCA Assay performed according to manufacturer's protocol (EMD Millipore, Cat. No. 71285-3). Samples were evaluated by Western blot analysis on the Jess Platform (ProteinSimple). Lysates were diluted with complete lysis buffer (as described above) and 5 μg of total proteins were loaded onto each capillary. Samples were prepared using the ProteinSimple EZ Standard Pack 1 (Cat. No. PS-ST01EZ-8; containing tubes with powdered (5×) Fluorescent Master Mix, DTT, and biotinylated ladder) and run using the ProteinSimple 25-Capillary Cartridge kit (Cat. No. SM-W004; containing 25-capillary cartridge Wash reagent, and 10× Sample Buffer reagent), the ProteinSimple Anti-Rabbit HRP Detection Module for Jess (Cat. No. DM-001; containing Antibody Diluent, anti-rabbit secondary antibody, Luminol-S, Peroxide, and Streptavidin-HRP), and the ProteinSimple Anti-Mouse NIR Detection Module for Jess (Cat. No. DM-009; containing Antibody Diluent, anti-mouse NIR secondary antibody, and Streptavidin-NIR) as the following describes. The DTT was reconstituted with 40 μL water to make a 400 mM solution, 20 μL of the DTT solution plus 20 μL of 10× Sample Buffer were added to reconstitute the 5× Fluorescent Master Mix, and 20 μL of H2O was used to reconstitute the biotinylated ladder. For each sample, lysate (4 μL) was combined with 5× Fluorescent Master Mix (1 μL) and heated at 95° C. for 5 minutes. Samples were cooled and stored on ice. Primary antibody solution was made using anti-SMARCA2 antibody (Abcam, Cat. No. 240648, 1:10) and anti-beta-Actin antibody (Cell Signaling Technology, Cat. No. 3700S, 1:25) in antibody diluent. The 25-capillary cartridges were prepared per standard ProteinSimple protocol with each sample in a column. For the biotinylated ladder in column 1, the following were added: 5 µL of ladder sample in Row A, 10 μL of antibody diluent in Rows B and C, 10 μL of Streptavidin-NIR in Row D, and 15 μL of a 50:50 Luminol-s/Peroxide solution in Row E. For each test sample (columns 2-25), the following were added per column: 5 μL of sample in Row A, 10 μL of antibody diluent in Row B, 10 μL of primary antibody solution in Row C, 10 μL of secondary antibody in Row D, and 15 μL of a 50:50 Luminol-S/Peroxide solution in Row E. 500 μL wash buffer was added to the wash buffer wells in the cartridge and cartridge was spun at 1000×g for 5 minutes prior to loading into the Jess. Samples were run using the Chemiluminescence and Fluorescence immunoassays in the ProteinSimple Compass for SimpleWestern program (version 5.0.0). After running, SMARCA2, actin, and background curves were identified in the Compass software; note that in the Compass software, the electropherograms are also visualized as bands for comparison with standard Western blot outputs. The electropherogram area reading for each sample curve was normalized to that of the corresponding actin curve per column following background (capillary background) subtraction using the following equation: […]
Following normalization, the percentage of SMARCA2 remaining per sample relative to the vehicle control was calculated as follows: […]

SMARCA4 = molecular target: T2, SMARCA4 (Homo sapiens, UniProt P51532); test: Cellular degradation assay, SMARCA4 (Table 1); format: cell-based
T2 construct: endogenous in cells
T2 sequence (P51532 whole entry, species assumed): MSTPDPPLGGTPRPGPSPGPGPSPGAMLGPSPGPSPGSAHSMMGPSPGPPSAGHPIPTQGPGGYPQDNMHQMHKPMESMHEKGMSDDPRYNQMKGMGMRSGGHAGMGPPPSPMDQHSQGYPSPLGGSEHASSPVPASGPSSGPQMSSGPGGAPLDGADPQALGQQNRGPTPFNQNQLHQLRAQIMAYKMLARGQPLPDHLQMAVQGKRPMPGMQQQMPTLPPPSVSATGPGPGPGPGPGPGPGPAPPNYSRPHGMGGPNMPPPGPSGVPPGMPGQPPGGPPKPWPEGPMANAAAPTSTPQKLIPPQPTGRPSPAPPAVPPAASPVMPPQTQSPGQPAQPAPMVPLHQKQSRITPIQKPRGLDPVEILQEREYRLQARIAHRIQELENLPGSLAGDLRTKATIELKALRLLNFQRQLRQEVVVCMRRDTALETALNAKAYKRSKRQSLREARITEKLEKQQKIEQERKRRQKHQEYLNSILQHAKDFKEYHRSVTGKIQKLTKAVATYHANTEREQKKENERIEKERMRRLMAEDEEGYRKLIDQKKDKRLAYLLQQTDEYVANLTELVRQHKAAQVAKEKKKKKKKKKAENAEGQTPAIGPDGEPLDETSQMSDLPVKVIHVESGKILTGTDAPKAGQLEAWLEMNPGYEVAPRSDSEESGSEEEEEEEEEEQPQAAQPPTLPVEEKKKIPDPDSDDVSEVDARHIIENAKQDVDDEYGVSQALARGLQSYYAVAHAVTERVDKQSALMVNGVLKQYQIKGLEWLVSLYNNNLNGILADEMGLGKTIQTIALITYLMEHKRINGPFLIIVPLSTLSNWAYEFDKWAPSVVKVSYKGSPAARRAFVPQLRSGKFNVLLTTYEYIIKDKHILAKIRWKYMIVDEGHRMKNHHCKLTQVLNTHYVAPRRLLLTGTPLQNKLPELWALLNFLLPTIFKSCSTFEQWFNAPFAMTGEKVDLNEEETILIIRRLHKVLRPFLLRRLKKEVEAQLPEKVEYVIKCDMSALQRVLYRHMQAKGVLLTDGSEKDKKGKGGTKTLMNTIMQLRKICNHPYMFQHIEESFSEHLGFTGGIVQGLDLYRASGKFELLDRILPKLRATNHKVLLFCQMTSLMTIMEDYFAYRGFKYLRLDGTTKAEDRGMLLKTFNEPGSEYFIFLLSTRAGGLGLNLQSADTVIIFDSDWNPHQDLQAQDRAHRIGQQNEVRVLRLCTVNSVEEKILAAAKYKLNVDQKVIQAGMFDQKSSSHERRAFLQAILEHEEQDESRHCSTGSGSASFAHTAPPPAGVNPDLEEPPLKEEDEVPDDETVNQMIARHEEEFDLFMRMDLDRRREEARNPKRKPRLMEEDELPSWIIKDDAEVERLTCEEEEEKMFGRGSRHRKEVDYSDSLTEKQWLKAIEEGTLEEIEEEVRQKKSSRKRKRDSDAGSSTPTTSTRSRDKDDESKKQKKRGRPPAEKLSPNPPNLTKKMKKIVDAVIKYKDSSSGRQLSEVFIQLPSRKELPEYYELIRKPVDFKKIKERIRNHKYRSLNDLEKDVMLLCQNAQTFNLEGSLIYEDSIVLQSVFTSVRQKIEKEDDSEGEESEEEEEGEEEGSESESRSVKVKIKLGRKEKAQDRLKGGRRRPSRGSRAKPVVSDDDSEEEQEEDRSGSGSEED

T1 sequence (P51531 whole entry, species assumed): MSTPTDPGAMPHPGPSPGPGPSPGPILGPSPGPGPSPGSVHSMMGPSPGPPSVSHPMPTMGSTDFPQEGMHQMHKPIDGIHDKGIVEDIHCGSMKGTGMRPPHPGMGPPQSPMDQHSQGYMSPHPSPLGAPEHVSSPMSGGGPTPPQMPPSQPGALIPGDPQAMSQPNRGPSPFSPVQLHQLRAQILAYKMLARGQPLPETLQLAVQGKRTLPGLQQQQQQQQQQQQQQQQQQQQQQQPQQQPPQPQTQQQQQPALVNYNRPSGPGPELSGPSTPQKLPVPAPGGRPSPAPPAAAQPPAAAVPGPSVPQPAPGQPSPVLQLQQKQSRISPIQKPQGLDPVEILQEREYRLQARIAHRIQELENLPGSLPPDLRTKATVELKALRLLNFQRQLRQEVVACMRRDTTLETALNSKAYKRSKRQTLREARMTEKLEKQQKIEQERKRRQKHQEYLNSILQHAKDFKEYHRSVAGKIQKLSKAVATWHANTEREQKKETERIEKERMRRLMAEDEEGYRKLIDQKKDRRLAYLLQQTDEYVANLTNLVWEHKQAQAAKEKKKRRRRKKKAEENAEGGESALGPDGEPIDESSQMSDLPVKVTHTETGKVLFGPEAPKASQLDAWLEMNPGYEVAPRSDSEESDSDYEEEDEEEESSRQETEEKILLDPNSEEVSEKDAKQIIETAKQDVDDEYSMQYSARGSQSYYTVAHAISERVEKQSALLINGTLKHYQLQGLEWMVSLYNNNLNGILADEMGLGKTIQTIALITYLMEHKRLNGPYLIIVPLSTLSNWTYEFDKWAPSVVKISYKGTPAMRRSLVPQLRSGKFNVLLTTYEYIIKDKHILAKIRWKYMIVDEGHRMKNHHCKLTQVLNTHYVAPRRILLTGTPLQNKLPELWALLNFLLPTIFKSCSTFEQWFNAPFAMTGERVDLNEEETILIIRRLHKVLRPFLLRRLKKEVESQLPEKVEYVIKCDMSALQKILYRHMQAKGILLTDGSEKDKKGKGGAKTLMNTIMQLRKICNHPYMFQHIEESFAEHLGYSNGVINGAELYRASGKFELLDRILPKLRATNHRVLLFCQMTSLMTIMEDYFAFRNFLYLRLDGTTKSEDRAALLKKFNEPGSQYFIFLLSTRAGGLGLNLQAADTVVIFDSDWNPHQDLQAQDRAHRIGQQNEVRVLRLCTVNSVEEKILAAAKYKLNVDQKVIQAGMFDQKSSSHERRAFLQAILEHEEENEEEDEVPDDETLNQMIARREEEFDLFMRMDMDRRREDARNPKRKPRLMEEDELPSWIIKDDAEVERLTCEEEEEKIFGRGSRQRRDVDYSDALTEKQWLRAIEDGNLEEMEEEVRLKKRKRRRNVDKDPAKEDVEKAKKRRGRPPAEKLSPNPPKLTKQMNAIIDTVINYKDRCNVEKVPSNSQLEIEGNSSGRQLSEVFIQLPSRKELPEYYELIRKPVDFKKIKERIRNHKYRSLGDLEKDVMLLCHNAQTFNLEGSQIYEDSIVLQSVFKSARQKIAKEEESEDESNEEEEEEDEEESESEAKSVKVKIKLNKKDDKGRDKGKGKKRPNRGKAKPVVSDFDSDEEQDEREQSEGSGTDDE

DC50 (SMARCA2) [nM] | Dmax (SMARCA2) [%] | Fold Selectivity SMARCA4/2 (SMARCA2) | DC50 (SMARCA4) [nM] | Dmax (SMARCA4) [%] | SMILES
24.4 | 77.9 | 6.42 | 156 | 57 | O=C1CCC(c2ccc(N3CCC(F)(CN4CC5(C4)CN(C(=O)C4(c6ccccc6)CCN(c6cnnc(-c7ccccc7O)c6)CC4)C5)CC3)nc2)C(=O)N1 (racemic) [Example 19, rac-(3R)-3-(6-{4-fluoro-4-[(6-{1-[6-(2-hydroxyphenyl)pyridazin-4-yl]-4-phenylpiperidine-4-carbonyl}-2,6-diazaspiro[3.3]heptan-2-yl)methyl]piperidin-1-yl}pyridin-3-yl)piperidine-2,6-dione]
24.6 | 67.5 | 406.6 |  | 48.3 | O=C1CCC(c2ccc(N3CCC(C(=O)N4CC5(C4)CN(C(=O)C4(c6ccccc6)CCN(c6cnnc(-c7ccccc7O)c6)CC4)C5)CC3)cc2)C(=O)N1 (racemic) [Example 20, rac-(3R)-3-{4-[4-(6-{1-[6-(2-hydroxyphenyl)pyridazin-4-yl]-4-phenylpiperidine-4-carbonyl}-2,6-diazaspiro[3.3]heptane-2-carbonyl)piperidin-1-yl]phenyl}piperidine-2,6-dione]
 | 32 | 1 |  | 19.3 | CC1(C(=O)N2CCN(c3ccc(C4CCC(=O)NC4=O)cc3)CC2)CCN(C(=O)C2(c3ccccc3)CCN(c3cnnc(-c4ccccc4O)c3)CC2)CC1 (racemic) [Example 21, rac-(3R)-3-{4-[4-(1-{1-[6-(2-hydroxyphenyl)pyridazin-4-yl]-4-phenylpiperidine-4-carbonyl}-4-methylpiperidine-4-carbonyl)piperazin-1-yl]phenyl}piperidine-2,6-dione]
 | 30.5 | 1 |  | 20.6 | O=C1CCC(c2ccc(N3CCN(C(=O)CCCN4CCN(C(=O)C5(c6ccccc6)CCN(c6cnnc(-c7ccccc7O)c6)CC5)CC4)CC3)cc2)C(=O)N1 (racemic) [Example 22, rac-(3R)-3-(4-{4-[4-(4-{1-[6-(2-hydroxyphenyl)pyridazin-4-yl]-4-phenylpiperidine-4-carbonyl}piperazin-1-yl)butanoyl]piperazin-1-yl}phenyl)piperidine-2,6-dione]
 | 14.1 | 1 |  | 14.6 | O=C1CCC(c2ccc(N3CCC(CN4CC5(C4)CN(C(=O)C4(Cc6ccccc6)CCN(c6cnnc(-c7ccccc7O)c6)CC4)C5)CC3)cc2)C(=O)N1 (racemic) [Example 26, rac-(3R)-3-(4-{4-[(6-{4-benzyl-1-[6-(2-hydroxyphenyl)pyridazin-4-yl]piperidine-4-carbonyl}-2,6-diazaspiro[3.3]heptan-2-yl)methyl]piperidin-1-yl}phenyl)piperidine-2,6-dione]
18.2 | 72.8 | 7.24 | 132 | 56.5 | O=C1CCC(c2ccc(N3CCC(CN4CC5(C4)CN(C(=O)C4(c6cccc(Cl)c6)CCN(c6cnnc(-c7ccccc7O)c6)CC4)C5)CC3)cc2)C(=O)N1 (racemic) [Example 27, rac-(3R)-3-{4-[4-({6-[4-(3-chlorophenyl)-1-[6-(2-hydroxyphenyl)pyridazin-4-yl]piperidine-4-carbonyl]-2,6-diazaspiro[3.3]heptan-2-yl}methyl)piperidin-1-yl]phenyl}piperidine-2,6-dione]
 | 5.79 | 1 |  | 0.46 | O=C1CCC(c2ccc(N3CCN(C(=O)C4CC45CCN(C(=O)C4(c6ccccc6)CCN(c6cnnc(-c7ccccc7O)c6)CC4)C5)CC3)cc2)C(=O)N1 (racemic) [Example 29, rac-(3R)-3-{4-[4-(5-{1-[6-(2-hydroxyphenyl)pyridazin-4-yl]-4-phenylpiperidine-4-carbonyl}-5-azaspiro[2.4]heptane-1-carbonyl)piperazin-1-yl]phenyl}piperidine-2,6-dione]
71.7 | 63 | 139.55 |  | 37.2 | O=C1CCC(c2ccc(N3CCC(CN4CC5(C4)CN(C(=O)C4(c6ccc(Cl)c(Cl)c6)CCN(c6cnnc(-c7ccccc7O)c6)CC4)C5)CC3)cc2)C(=O)N1 (racemic) [Example 32, rac-(3R)-3-{4-[4-({6-[4-(3,4-dichlorophenyl)-1-[6-(2-hydroxyphenyl)pyridazin-4-yl]piperidine-4-carbonyl]-2,6-diazaspiro[3.3]heptan-2-yl}methyl)piperidin-1-yl]phenyl}piperidine-2,6-dione]
11.7 | 78.9 | 6.16 | 71.9 | 56 | Cc1ccccc1C1(C(=O)N2CC3(CN(CC4CCN(c5ccc(C6CCC(=O)NC6=O)cc5)CC4)C3)C2)CCN(c2cnnc(-c3ccccc3O)c2)CC1 (racemic) [Example 33, rac-(3R)-3-(4-{4-[(6-{1-[6-(2-hydroxyphenyl)pyridazin-4-yl]-4-(2-methylphenyl)piperidine-4-carbonyl}-2,6-diazaspiro[3.3]heptan-2-yl)methyl]piperidin-1-yl}phenyl)piperidine-2,6-dione]
47 | 58.6 | 212.72 |  | 30.6 | O=C1CCC(c2ccc(N3CCC(CN4CC5(C4)CN(C(=O)C4(c6cccnc6)CCN(c6cnnc(-c7ccccc7O)c6)CC4)C5)CC3)cc2)C(=O)N1 (racemic) [Example 34, rac-(3R)-3-(4-{4-[(6-{1-[6-(2-hydroxyphenyl)pyridazin-4-yl]-4-(pyridin-3-yl)piperidine-4-carbonyl}-2,6-diazaspiro[3.3]heptan-2-yl)methyl]piperidin-1-yl}phenyl)piperidine-2,6-dione]
11.9 | 78.5 | 6.99 | 83.4 | 59.3 | Cc1cccc(C2(C(=O)N3CC4(CN(CC5CCN(c6ccc(C7CCC(=O)NC7=O)cc6)CC5)C4)C3)CCN(c3cnnc(-c4ccccc4O)c3)CC2)c1 (racemic) [Example 43, rac-(3R)-3-(4-{4-[(6-{1-[6-(2-hydroxyphenyl)pyridazin-4-yl]-4-(3-methylphenyl)piperidine-4-carbonyl}-2,6-diazaspiro[3.3]heptan-2-yl)methyl]piperidin-1-yl}phenyl)piperidine-2,6-dione]
6.22 | 86.6 | 3.95 | 24.6 | 77.5 | O=C1CCC(c2ccc(N3CCC(CN4CC5(C4)CN(CC4(c6ccccc6)CCN(c6cnnc(-c7ccccc7O)c6)CC4)C5)CC3)cc2)C(=O)N1 (racemic) [Example 44, rac-(3R)-3-[4-(4-{[6-({-[6-(2-hydroxyphenyl)pyridazin-4-yl]-4-phenylpiperidin-4-yl}methyl)-2,6-diazaspiro[3.3]heptan-2-yl]methyl}piperidin-1-yl)phenyl]piperidine-2,6-dione]
6.7 | 80.5 | 8.74 | 58.6 | 56.8 | Cn1ccc(C2(C(=O)N3CC4(CN(CC5CCN(c6ccc(C7CCC(=O)NC7=O)cc6)CC5)C4)C3)CCN(c3cnnc(-c4ccccc4O)c3)CC2)n1 (racemic) [Example 54, rac-(R)-3-(4-(4-((6-(1-(6-(2-hydroxyphenyl)pyridazin-4-yl)-4-(1-methyl-1H-pyrazol-3-yl)piperidine-4-carbonyl)-2,6-diazaspiro[3.3]heptan-2-yl)methyl)piperidin-1-yl)phenyl)piperidine-2,6-dione]
